{
  "source": "patent US8809529B2",
  "about": "“Imidazo[1,2-α]pyrazine derivatives” (Promega Corporation, priority 2010, dated 2014)",
  "key": {"OgLuc variant L27V": {"molecular_target": "OgLuc variant L27V (Oplophorus gracilirostris, UniProt Q9GV45, A31E/A60N/A81I/F95D/I117V/K70R/L54V/L99Q/M102K/N193R/P142E/Q151K/Q38R/Q45L/V71I/Y165I)", "conditions": "approximately 20 pM L27V, pH 6, 3 min at 22° C.", "method": "To determine the Km of PBI-3939, the OgLuc variant L27V (described in Example 26) was purified via HALOTAG® fusion using the HALOTAG® Protein Purification System according to the manufacturer's instructions and diluted in DMEM without Phenol Red and 0.1% PRIONEX®. 50 μL assay buffer (100 mM MES pH 6, 35 mM Thiourea, 0.5% TERGITOL® NP-9 (v/v), 1 mM CDTA, 2 mM DTT and 150 mM KCl) with varying amounts of PBI-3939 was added to 50 μL diluted enzyme (approximately 20 pM final enzyme concentration), and luminescence measured at 3 min at 22° C."}, "L27V02 enzyme": {"molecular_target": "T1, L27V02 enzyme (Oplophorus gracilirostris, UniProt Q9GV45, A31E/A60N/A81I/F95D/I117V/K70R/L54V/L99Q/M102K/N193R/P142E/Q151K/Q38R/Q45L/V71I/Y165I)", "T1 construct": "The N-terminus of the OgLuc variant L27V is methionine, valine and phenylalanine, i.e., MVF; made in house", "T1 sequence (Q9GV45 28-196 with tags or gaps with the stated changes limits assumed, one chain of several)": "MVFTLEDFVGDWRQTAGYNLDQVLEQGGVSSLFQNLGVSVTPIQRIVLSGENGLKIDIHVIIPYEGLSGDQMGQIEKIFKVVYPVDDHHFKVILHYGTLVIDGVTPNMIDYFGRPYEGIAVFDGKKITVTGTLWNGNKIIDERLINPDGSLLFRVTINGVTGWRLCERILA", "assay": "Luminescence of compounds with purified L27V02 enzyme", "assay_type": "biochemical", "conditions": "20 μM compound, 36 pM L27V02, pH 7, 3 min", "method": "Compounds PBI-4525, PBI-4540 and PBI-4541 were screened for their ability to detect luminescence. […] The assay reagent was then mixed with 36 pM purified L27V02 enzyme (described in Example 25B), in DMEM without Phenol Red and 0.1% PRIONEX®. As a control, assay buffer with 20 μM PBI-3939 or PBI-4528 was used. Luminescence was measured as previously described 3 min after the assay reagent was added to the enzyme mixture."}, "OgLuc variant 9B8 opt": {"molecular_target": "T2, OgLuc variant 9B8 opt (Oplophorus gracilirostris, UniProt Q9GV45, A31E/A60K/A81I/F95Y/I117V/L99Q/M102K/N193R/P142E/Q151K/Q38R/Q45L/V71I/Y165I)", "T2 construct": "made in house; host or cells: E. coli (crude lysate)", "T2 sequence (Q9GV45 other isoform, or with tags, fused parts or gaps with the stated changes)": "as the sequence (Q9GV45 28-196 with tags or gaps with the stated changes limits assumed, one chain of several) above, with V29L, N35K, R45K, D70Y counted along it", "assay": "Multiplex assay with red click beetle luciferase and 9B8 opt (modified DUAL-GLO)", "assay_type": "biochemical", "method": "A. Lysates of E. coli expressing the variant 9B8 opt were prepared as previously described in Example 27 and diluted 1000-fold in DMEM without phenol red+0.1% PRIONEX®. Luminescence from a sample containing 6.3 μg/mL of purified red click beetle luciferase and E. coli lysate expressing the variant 9B8 opt was detected using a modified DUAL-GLO® Luciferase Assay System (Promega Corp.). DUAL-GLO® STOP&GLO® Reagent containing 20 μM coelenterazine-h and DUAL-GLO® STOP&GLO® Reagent containing 20 μM PBI 3939 were used, according to the manufacturer's protocol, to detect the red click beetle luciferase and OgLuc variant 9B8 luciferase from a single sample. Three replicates were performed.\nLuminescence was detected on a Turner MODULUS™ luminometer. […] The standard deviation (“+/−”) and coefficient of variance (“CV”) are also shown. A “no coelenterazine” control was performed to illustrate the amount of quenching of the red click beetle signal by the DUAL-GLO® STOP&GLO® Reagent of the DUAL-GLO® Luciferase Assay System in the absence of coelenterazine. The “no coelenterazine” control yielded a 349-fold quench."}, "HEK293 cells [1]": {"test_system": "HEK293 cells", "assay": "Live cell luminescence in HEK293 cells", "assay_type": "cell-based, human", "conditions": "HEK293 cells expressing 9B8 opt, 60 μM", "method": "A. The use of OgLuc variants and PBI-3939 in live cells was examined. HEK293 cells were plated in 96-well plates at 15,000 cells/well and grown overnight, at 37° C. The following day, the cells were transiently transfected using TRANSIT®-LT1 in 3 replicates with 100 ng of hRL or 9B8 opt in pF4Ag and grown overnight at 37° C. The following day the growth media was removed and replaced with media containing 60 μM VIVIREN™ Live Cell Substrate (Promega Corp.), 60 μM ENDUREN™ Live Cell Substrate (Promega Corp.), or 60 μM PBI-3939 for both hRL and 9B8 opt transfected cells. Non-transfected cells were used as background control. The plate was incubated at 37° C. during the course of one day and periodically measured on a TECAN® GENIOS™ Pro luminometer, i.e., 11 times over the course of 24 hrs."}, "HEK293 cells [2]": {"test_system": "HEK293 cells", "conditions": "human, 24 h"}},
  "data": [
    {"smiles": "O=c1c(Cc2ccco2)nc2c(Cc3ccccc3)[nH]c(-c3ccccc3)cn1-2", "note": "[PBI-3939, 8-benzyl-2-(furan-2-ylmethyl)-6-phenylimidazo[1,2-a]pyrazin-3(7H)-one]", "values": [
      {"measurement": "Km", "setting": "OgLuc variant L27V", "value": "~10", "unit": "µM"},
      {"measurement": "RLU", "setting": "L27V02 enzyme", "value": "9,808,880 RLU"},
      {"measurement": "Ogluc (average luminescence generated by 9B8 opt)", "setting": "OgLuc variant 9B8 opt; 20 μM substrate in DUAL-GLO STOP&GLO Reagent", "value": "2,996,940"},
      {"measurement": "+/− coel", "setting": "OgLuc variant 9B8 opt; Ogluc signal relative to no coelenterazine control", "value": 207},
      {"measurement": "cell permeation", "setting": "HEK293 cells [1]", "value": "can permeate cells in culture"},
      {"measurement": "Stability (pH 8) (T90 in hrs)", "value": 4.1, "unit": "hrs"},
      {"measurement": "Viability (normalized to vehicle (DMSO) control) (%)", "setting": "HEK293 cells [2]", "value": 89, "unit": "%"}
    ]}
  ]
}
